Columns and labels:
[1] = Single oral dose pharmacokinetics of atazanavir; design: species or system Wistar rats; details: male, Wistar, rat, in vivo, 10 mg/kg
Description: All animal work was conducted in accordance with the Animals (Scientific Procedures) Act 1986 (ASPA) implemented by the UK Home Office. The rodents were housed with environmental enrichment and a 12 h light/dark cycle at 21° C.±2° C. Free access to food and water was provided at all times during acclimatisation. Following 7-days acclimatisation, adult male Wistar rats (280-330 g) were fasted overnight and dosed with 10 mg Kg^−1 atazanavir at 10 μCi/mg, either as a conventional [^3H]-atazanavir preparation (<5% DMSO) or as a [^3H]-^ATVSDNF68/T20 nanodispersion using a 7-cm curved gavage needle. Subsequently, blood samples were collected (0.2 ml) at 1, 2, 2.5, 3, 6 and 12 h post-dosing from the tail vein. At 24 h, the rats were sacrificed using cardiac puncture under terminal anaesthesia (isoflurane/oxygen), followed by immediate exsanguination of blood from the heart. Subsequently, an overdose of sodium pentobarbitone was administered using the same in situ puncture needle. Blood samples were collected in heparinised Eppendorf tubes and centrifuged at 3,000 rpm for 5 min. The plasma layer was collected and stored at −20° C. prior to analysis.

[2] = Multiple oral dose (every 6 hours) pharmacokinetics of atazanavir; format: in vivo, Wistar rats; details: multiple oral dose 10 mg/kg atazanavir every 6 hours, steady state, rat plasma
Description: All animal work was conducted in accordance with the Animals (Scientific Procedures) Act 1986 (ASPA) implemented by the UK Home Office. The rodents were housed with environmental enrichment and a 12 h light/dark cycle at 21° C.±2° C. Free access to food and water was provided at all times. Following 7-days acclimatisation, adult male Wistar rats (280-330 g) were dosed with 10 mg Kg^−1 atazanavir at 5 μCi/mg, either as a conventional [^3H]-atazanavir preparation (<5% DMSO) or as a [^3H]^ATVSDNF68/T20 nanodispersion using a 7-cm curved gavage needle. Subsequent doses were administered at 6 hour intervals. Subsequently, trough blood samples were collected (0.15 ml) every 12 h post-dosing from the lateral tail vein. Steady state PK blood samples were taken at 60, 61, 62, 62.5, 63, 64 and 66 h post first dose. At 66 h, the rats were sacrificed using cardiac puncture under terminal anaesthesia (isoflurane/oxygen), followed by immediate exsanguination of blood from the heart. Subsequently, an overdose of sodium pentobarbitone was administered using the same in situ puncture needle. Blood samples were collected in heparinised Eppendorf tubes and centrifuged at 3,000 rpm for 5 min. The plasma layer was collected and stored at −20° C. prior to analysis.

AUC(0-t) [1]: 60400 ng·h/mL
Cmax [1]: 4870 ng/mL
Cmin [1]: 1986 ng/mL
Tmax [1]: 2 h
AUC(0-t) ([2]; male, Wistar): 15500 ng·h/mL
Cmax ([2]; male, Wistar): 3090 ng/mL
Tmax ([2]; male, Wistar): 1 h
Cmin [2]: 1799 ng/mL
Compound: COC(=O)N[C@H](C(=O)N[C@@H](Cc1ccccc1)[C@@H](O)CN(Cc1ccc(-c2ccccn2)cc1)NC(=O)[C@@H](NC(=O)OC)C(C)(C)C)C(C)(C)C [Aqueous atazanavir, atazanavir]
